Our source for the IC50 and Activity values is ChEMBL document CHEMBL3580543, “C-Geranylated Flavanones from Paulownia tomentosa Fruits as Potential Anti-inflammatory Compounds Acting via Inhibition of TNF-α Production” (J Nat Prod, 2015).

Data set [1] relates to THP-1. Briefly: Cytotoxicity against human THP1 cells assessed as cell viability after 24 hrs by WST assay. Type of data set: cell-based. The settings on record: THP-1, 24 h.
Data set [2] relates to THP-1. Briefly: Cytotoxicity against human THP1 cells at 2 uM after 24 hrs by WST assay. The class given is cell-based. The settings on record: thp-1, 24 h.
The test system of data set [3] is THP-1. Briefly: Antiinflammatory activity in differentiated human THP1 cells assessed as inhibition of LPS-induced ROS level at 2 uM pretreated for 1 hr measured after 24 hrs of LPS stimulation by fluorescence assay. Type of data set: functional, cell-based.
Data set [4] deals with THP-1. Put plainly: Antiinflammatory activity in differentiated human THP1 cells assessed as inhibition of LPS-induced TNFalpha secretion at 2 uM after 24 hrs by ELISA. Type of data set: functional, cell-based.
Data set [5] relates to THP-1. Put plainly: Antiinflammatory activity in differentiated human THP1 cells assessed as inhibition of LPS-induced TNFalpha mRNA expression at 2 uM after 4 hrs by RT-qPCR analysis. The class given is functional, cell-based.
Data set [6] concerns THP-1. Briefly: Antiinflammatory activity in differentiated human THP1 cells assessed as inhibition of LPS-induced IkappaB degradation at 2 uM pretreated for 1 hr measured after 30 mins of LPS stimulation by Western blot analysis. Type of data set: functional, cell-based.
In data set [7] the test system is THP-1. Briefly: Antiinflammatory activity in differentiated human THP1 cells assessed as inhibition of LPS-induced NFkappaB activation at 2 uM pretreated for 1 hr measured after 4 hrs of LPS stimulation by DAPI-staining based immunohistochemical analysis. Type of data set: functional, cell-based.
Data set [8] relates to THP-1. Put plainly: Cytotoxicity against human THP1 cells assessed as increase in ROS level at 2 uM. Type of data set: cell-based. As to conditions: thp-1, 2 µM.

Activity calls are given as the source filed them. The rule behind the calls is not given here.

For the molecule `COc1cc([C@@H]2CC(=O)c3c(O)cc(O)cc3O2)cc(OC)c1OC`, in data set [1], the IC50 is more than 10 µM. In addition, in data set [2], the Activity result is “Non-toxic”.

On to `CC(C)=CCCC1(C)C=Cc2c(cc3c(c2O)C(=O)C[C@@H](c2cc(O)cc(O)c2)O3)O1` (stereo partly drawn), for which the IC50 in data set [1] is more than 10 µM. Besides, the Activity entry in data set [2] is given as “Non-toxic”.

With `CC(C)=CCCC(C)(O)C1Cc2c(cc3c(c2O)C(=O)CC(c2ccc(O)cc2)O3)O1` (stereo not drawn), the IC50 in data set [1] is more than 10 µM. Also, in data set [2], the Activity result is on record as “Non-toxic”.

As to `C=C(C)C1CCC(C)(C(O)Cc2c(O)cc3c(c2O)C(=O)C[C@@H](c2ccc(O)c(OC)c2)O3)O1` (stereo partly drawn), the IC50 in data set [1] is more than 10 µM. Moreover, the Activity result in data set [2] was “Non-toxic”.

As to `O=C1C[C@@H](c2ccc(O)c(O)c2)Oc2cc(O)cc(O)c21` [ERIODICTYOL], the IC50 in data set [1] is more than 10 µM. The Activity result in data set [2] is on record as “Non-toxic”.

`COc1cc([C@@H]2CC(=O)c3c(cc(O)c(CC=C(C)C)c3O)O2)ccc1O`: the IC50 in data set [1] was more than 10 µM. Further, the Activity entry in data set [2] is on record as “Non-toxic”.

Consider `COc1cc([C@@H]2CC(=O)c3c(cc(O)c(C/C=C(\C)CCC=C(C)C)c3O)O2)ccc1O`, for which the IC50 in data set [1] is less than 10 µM. The result in data set [3] was inactive. The result in data set [4], in data set [5], in data set [6] and in data set [7] was Active. The Activity result in data set [2] is given as “Non-toxic”.

For the molecule `COc1cc([C@@H]2CC(=O)c3c(cc4c(c3O)CC(C(C)(O)CCC=C(C)C)O4)O2)ccc1O` (stereo partly drawn), in data set [1], the half-maximal inhibitory concentration (IC50) was less than 10 µM. Also, the Activity entry in data set [2] is on record as “Non-toxic”.

As for `COC(C)(C)C(O)CC/C(C)=C/Cc1c(O)cc2c(c1O)C(=O)C[C@@H](c1ccc(O)cc1)O2` (stereo partly drawn), the IC50 in data set [1] was more than 10 µM. Besides, in data set [2], the Activity entry is “Non-toxic”.

In the case of `CC(C)=CCC/C(C)=C/Cc1c(O)cc2c(c1O)C(=O)C[C@@H](c1ccc(O)c(O)c1)O2` [NYMPHAEOL A], the IC50 in data set [1] is more than 10 µM. The outcome in data set [3] was inactive. Besides, the result in data set [5], in data set [6] and in data set [7] was Active. In data set [2], the Activity result was “Non-toxic”.

`COc1cc([C@@H]2CC(=O)c3c(cc(O)c(C/C=C(\C)CCC=C(C)C)c3O)O2)cc(OC)c1O`: the IC50 in data set [1] was less than 10 µM. Further, the result in data set [4] was Active. Besides, in data set [2], the Activity entry is given as “Non-toxic”.

On to `COc1cc([C@@H]2CC(=O)c3c(cc4c(c3O)CC(O)C(C)(CCC=C(C)C)O4)O2)ccc1O` (stereo partly drawn), for which the IC50 in data set [1] was less than 10 µM. The Activity entry in data set [8] is “Toxic”; in data set [2], “Non-toxic”. Besides, the result in data set [3] was inactive. Moreover, the result in data set [4], in data set [5], in data set [6] and in data set [7] was Active.

Take `O=C1C[C@@H](c2ccc(O)cc2)Oc2cc(O)cc(O)c21` [NARINGENIN]: the IC50 in data set [1] was more than 10 µM. Moreover, the Activity result in data set [2] is “Non-toxic”.

Turning to `C=C(CCC=C(C)C)C(O)Cc1c(O)cc2c(c1O)C(=O)C[C@@H](c1ccc(O)cc1)O2` (stereo partly drawn), the IC50 in data set [1] was more than 11.4 µM. Besides, the Activity entry in data set [8] is “Toxic”; in data set [2], “Non-toxic”. Also, the result in data set [4], in data set [5], in data set [6] and in data set [7] was Active.

Consider `COc1cc([C@H]2Oc3cc4c(c(O)c3C(=O)[C@@H]2O)C=CC(C)(CCC=C(C)C)O4)ccc1O` (stereo partly drawn), for which, in data set [1], the IC50 was more than 10 µM. For the same molecule, the outcome in data set [4] was Active. Moreover, the Activity entry in data set [2] is recorded as “Non-toxic”.

Regarding `C/C(=C\Cc1c(O)cc2c(c1O)C(=O)C[C@@H](c1ccc(O)cc1)O2)CCC(O)C(C)(C)O` (stereo partly drawn), the half-inhibitory concentration (IC50) in data set [1] was more than 10 µM. For the same molecule, in data set [2], the Activity result is given as “Non-toxic”.

In the case of `CC(C)=CCC/C(C)=C/Cc1c(O)cc2c(c1O)C(=O)C[C@@H](c1ccc(O)cc1)O2` [BONANNIONE A], the IC50 in data set [1] was less than 10 µM. The Activity entry in data set [2] is “Non-toxic”.

With `C=C(CCC=C(C)C)C(O)Cc1c(O)cc2c(c1O)C(=O)C[C@@H](c1ccc(O)c(OC)c1)O2` (stereo partly drawn), the IC50 in data set [1] is less than 6.5 µM. Further, the Activity entry in data set [2] was “Non-toxic”.

For `COc1cc(C2CC(=O)c3c(cc(O)c(C/C=C(\C)CCC(O)C(C)(C)OC)c3O)O2)cc(OC)c1O` (stereo not drawn), the IC50 in data set [1] is more than 10 µM. Besides, the Activity entry in data set [2] is listed as “Non-toxic”.

On to `COc1cc([C@@H]2CC(=O)c3c(cc(O)c(C/C=C(\C)CCC(O)C(C)(C)OC)c3O)O2)ccc1O` (stereo partly drawn), for which the IC50 in data set [1] was more than 10 µM. Further, in data set [2], the Activity result was “Non-toxic”.

Consider `COc1ccc([C@@H]2CC(=O)c3c(cc(O)c(C/C=C(\C)CCC=C(C)C)c3O)O2)cc1OC`, for which the IC50 in data set [1] was less than 10 µM. In addition, the result in data set [4] was Active. Besides, in data set [2], the Activity entry is given as “Non-toxic”.

On to `COc1cc([C@H]2Oc3cc(O)c(C/C=C(\C)CCC=C(C)C)c(O)c3C(=O)[C@@H]2O)ccc1O`, for which the IC50 in data set [1] is less than 10 µM. In addition, the result in data set [4] was Active. The Activity result in data set [2] is “Non-toxic”.

As to `COc1cc([C@@H]2CC(=O)c3c(cc(O)c(C/C=C(\C)CCC=C(C)C)c3O)O2)cc(O)c1OC`, the IC50 in data set [1] is less than 10 µM. Moreover, the result in data set [5], in data set [6] and in data set [7] was Active. Also, the Activity result in data set [2] is recorded as “Non-toxic”.

Take `COc1cc(C2CC(=O)c3c(cc(O)c(C/C=C(\C)CCC(O)C(C)(C)O)c3O)O2)cc(OC)c1O` (stereo not drawn): the IC50 in data set [1] is more than 10 µM. In addition, in data set [2], the Activity entry is on record as “Non-toxic”.

Turning to `COc1cc([C@@H]2CC(=O)c3c(cc(O)c(C/C=C(\C)C/C=C/C(C)(C)O)c3O)O2)ccc1O` [TOMENTODIPLACONE B], the IC50 in data set [1] was more than 10 µM. In addition, the outcome in data set [4] was Active. Also, the Activity entry in data set [2] is “Non-toxic”.
